Reference: PMC5508519 (Bioorganic & medicinal chemistry letters, 2017)

Experiments:
hM4 = target: T1, hM4 (Homo sapiens, UniProt P08173); test: calcium mobilization assay, hM4 CHO cells co-transfected with Gqi5, ACh EC80; assay type: cell-based; conditions: SAR text on Table 2
T1 sequence (P08173 1-479): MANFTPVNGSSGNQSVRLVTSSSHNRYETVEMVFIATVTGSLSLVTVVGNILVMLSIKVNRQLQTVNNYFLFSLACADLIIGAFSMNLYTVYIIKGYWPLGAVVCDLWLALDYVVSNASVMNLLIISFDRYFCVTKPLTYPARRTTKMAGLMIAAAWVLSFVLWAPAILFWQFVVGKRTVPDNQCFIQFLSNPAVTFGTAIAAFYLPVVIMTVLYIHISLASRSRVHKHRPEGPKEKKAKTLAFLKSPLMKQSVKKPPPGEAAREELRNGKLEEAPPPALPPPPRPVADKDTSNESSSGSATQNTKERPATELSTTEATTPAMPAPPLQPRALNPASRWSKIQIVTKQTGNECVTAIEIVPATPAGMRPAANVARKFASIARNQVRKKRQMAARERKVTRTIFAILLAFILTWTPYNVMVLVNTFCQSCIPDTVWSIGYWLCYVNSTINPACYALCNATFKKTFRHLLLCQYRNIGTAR

[1] = predicted hepatic clearance from human microsomal CLint; assay type: in vitro ADME; conditions: based on CLint data from microsomes
M1 = target: T2, M1 (Homo sapiens, UniProt P11229); test: calcium mobilization assay, hM1 CHO cells, approximate EC80 of ACh; assay type: cell-based; conditions: n = 1
T2 sequence (P11229 1-460): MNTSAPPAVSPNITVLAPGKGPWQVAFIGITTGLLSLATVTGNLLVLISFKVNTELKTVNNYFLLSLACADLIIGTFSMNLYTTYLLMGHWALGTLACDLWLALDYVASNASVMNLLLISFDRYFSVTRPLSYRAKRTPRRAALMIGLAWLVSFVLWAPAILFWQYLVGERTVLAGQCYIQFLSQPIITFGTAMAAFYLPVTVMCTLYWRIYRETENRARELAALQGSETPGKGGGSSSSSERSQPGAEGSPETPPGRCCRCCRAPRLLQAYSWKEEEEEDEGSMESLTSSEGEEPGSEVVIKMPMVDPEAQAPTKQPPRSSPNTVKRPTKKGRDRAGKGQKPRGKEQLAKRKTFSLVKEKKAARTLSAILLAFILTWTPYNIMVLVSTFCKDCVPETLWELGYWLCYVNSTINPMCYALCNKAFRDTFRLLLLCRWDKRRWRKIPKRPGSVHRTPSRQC

M5 = target: T3, M5 (Homo sapiens, UniProt P08912); test: calcium mobilization assay, hM5 CHO cells, approximate EC80 of ACh; assay type: cell-based; conditions: n = 1
T3 sequence (P08912 1-532): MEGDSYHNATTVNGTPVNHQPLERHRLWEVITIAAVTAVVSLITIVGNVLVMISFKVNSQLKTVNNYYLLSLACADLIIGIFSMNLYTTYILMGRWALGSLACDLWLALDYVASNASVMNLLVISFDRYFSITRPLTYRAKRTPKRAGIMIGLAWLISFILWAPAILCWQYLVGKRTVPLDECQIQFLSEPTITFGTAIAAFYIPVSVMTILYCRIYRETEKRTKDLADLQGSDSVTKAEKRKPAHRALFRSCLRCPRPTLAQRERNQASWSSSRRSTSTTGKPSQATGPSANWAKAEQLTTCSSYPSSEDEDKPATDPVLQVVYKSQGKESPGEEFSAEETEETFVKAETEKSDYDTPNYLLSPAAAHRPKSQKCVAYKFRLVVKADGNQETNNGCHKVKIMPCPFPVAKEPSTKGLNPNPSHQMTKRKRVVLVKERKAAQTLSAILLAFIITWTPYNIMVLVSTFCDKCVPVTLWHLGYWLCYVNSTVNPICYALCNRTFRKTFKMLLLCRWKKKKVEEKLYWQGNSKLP

Row | Compound | M4 inhibitory activity (in words) (hM4) | predicted hepatic clearance CLhep (rat) [mL/min/kg] | predicted hepatic clearance CLhep (human) [1] [mL/min/kg] | other results
1 | COc1ccc2c(c1)CCN(C(=O)C1CCN(c3cc(Oc4ccc(F)cc4F)ncn3)CC1)C2 [Compound 17b] | retained M4 inhibitory activity | – | – | –
2 | COc1ccc2c(c1)CN(C(=O)C1CCN(c3cc(Oc4ccc(F)cc4F)ncn3)CC1)CC2 [Compound 17c] | retained M4 inhibitory activity | – | – | –
3 | CCc1ccc(Oc2cc(N3CCC(C(=O)N4CCc5ccccc5C4)CC3)ncn2)cc1 [Compound 5] | – | 68.6 | 20.3 | –
4 | O=C(C1CCN(c2cc(Oc3ccc(F)cc3F)ncn2)CC1)N1Cc2ccccc2C1 [Compound 17e, (1-(6-(2,4-difluorophenoxy)pyrimidin-4-yl)piperidin-4-yl)(isoindolin-2-yl)methanone] | – | 36.5 | 5.56 | M1 % ACh Min (M1): 18.2 % ACh Min; predicted CLhep with inclusion of binding terms in the well-stirred model (rat): 5.93 mL/min/kg; M5 % ACh Min (M5): 42.6 % ACh Min
5 | O=C(C1CCN(c2cc(Oc3ccc(F)cc3F)ncn2)CC1)N1CCC2CCCCC2C1 (stereo not shown) [Compound 17d] | retained M4 inhibitory activity | – | – | –
